Patent EP0549365A1, “Thiazolidine compounds, their preparation and their therapeutic uses” (Sankyo Company Limited, priority 1991, dated 1993)

Tested on: diabetic male mice of the KK strain
Experiment: Hypoglycemic activity (blood glucose lowering in diabetic KK mice)
Assay type: in vivo
Conditions: Mus musculus, 50 mg/kg oral, blood from tail vein after 18 hours free feeding, relative to solvent group, read-out: BGL lowering rate (%)
Method: The test animals used were diabetic male mice of the KK strain, each having a body weight more than 40 g. Each animal was orally administered 50 mg/kg of a test compound and then allowed to feed freely for 18 hours. At the end of this time, blood was collected from the tail veins without anesthesia. The blood glucose level (BGL) was determined by means of a glucose analyzer (GL-101, manufactured by Mitsubishi Kasei Co.).
The blood glucose lowering rate was calculated by the following equation: Blood glucose lowering rate (%) = [(BGLs - BGLt )/BGLs ] x 100 [formula] where: BGLs is the BGL in the group administered a solvent; and BGLt is the BGL in the group administered a test compound.

SMILES | inhibition in vivo at 50 mg/kg [%]
CC1=C(C)C(=O)C(CCC(C)(O)COc2ccc(CC3SC(=O)NC3=O)cc2)=C(C)C1=O (centres unmarked) [Control 1, 5-{4-[2-Methyl-2-hydroxy-4-(3,5,6-trimethyl-1,4-benzoquinon-2-yl)butoxy]benzyl}thiazolidine-2,4-dione, reference compound] | -0.5
Cc1c(C)c(O)c(CCC(C)(O)COc2ccc(CC3SC(=O)NC3=O)cc2)c(C)c1O (centres unmarked) [Control 2, 5-{4-[4-(2,5-Dihydroxy-3,4,6-trimethylphenyl)-2-hydroxy-2-methylbutoxy]benzyl}thiazolidine-2,4-dione, reference compound] | 10.4
CC(=O)Oc1c(C)c(C)c(OC(C)=O)c(Oc2ccc(CC3SC(=O)NC3=O)cc2)c1C (centres unmarked) [Example 7, 5-[4-(2,5-Diacetoxy-3,4,6-trimethylphenoxy)benzyl]thiazolidine-2,4-dione] | 24
COc1c(C)c(C)c(OC)c(COc2ccc(CC3SC(=O)NC3=O)cc2)c1C (centres unmarked) [Example 9] | 28.8
COc1c(C)c(C)c(OC)c(CCCOc2ccc(CC3SC(=O)NC3=O)cc2)c1C (centres unmarked) [Example 10, 5-{4-[3-(2,4,5-trimethyl-3,6-dimethoxyphenyl)propoxy]benzyl}thiazolidine-2,4-dione] | 46
COc1c(C)c(C)c(OC)c(CCCCOc2ccc(CC3SC(=O)NC3=O)cc2)c1C (centres unmarked) [Example 12] | 24
COc1c(C)c(CCOc2ccc(CC3SC(=O)NC3=O)cc2)c(OC)c(OC)c1OC (centres unmarked) [Example 16] | 20.2
COc1c(C)c(CCCOc2ccc(CC3SC(=O)NC3=O)cc2)c(OC)c(OC)c1OC (centres unmarked) [Example 18] | 22
COc1c(C)c(CCCCOc2ccc(CC3SC(=O)NC3=O)cc2)c(OC)c(OC)c1OC (centres unmarked) [Example 19] | 26.6
CC(=O)Oc1c(C)c(C)c(OC(C)=O)c(CCOc2ccc(CC3SC(=O)NC3=O)cc2)c1C (centres unmarked) [Example 21] | 33.4
CC(=O)Oc1c(C)c(C)c(OC(C)=O)c(CCCOc2ccc(CC3SC(=O)NC3=O)cc2)c1C (centres unmarked) [Example 23] | 24.4
COc1cc(COc2ccc(CC3SC(=O)NC3=O)cc2)c(OC)c2ccccc12 (centres unmarked) [Example 31] | 32.9
COc1c(C)c(COc2ccc(CC3SC(=O)NC3=O)cc2)c(OC)c2ccccc12 (centres unmarked) [Example 33] | 28.4
COc1cc(CCOc2ccc(CC3SC(=O)NC3=O)cc2)c(OC)c2ccccc12 (centres unmarked) [Example 34] | 40
